Patent US20240409585A1, “MACROCYCLIC IMMUNOMODULATORS” (priority 2021, published 2024)
Bridge positions count the residues as written; N and C are the ends. Square brackets hold non-standard residues; d marks the D form. Peptide text beside a SMILES is read from it. * marks the point of attachment. Bip(4'-COOH) = N[C@@H](Cc1ccc(-c2ccc(C(=O)O)cc2)cc1)C(=O)O; Bip(4'-NHAc) = CC(=O)Nc1ccc(-c2ccc(C[C@H](N)C(=O)O)cc2)cc1; Phe(3-CF3) = N[C@@H](Cc1cccc(C(F)(F)F)c1)C(=O)O; Ala(morpholin-4-yl) = N[C@@H](CN1CCOCC1)C(=O)O; Phe(4-CONH2) = NC(=O)c1ccc(C[C@H](N)C(=O)O)cc1; Phe(4-COOH) = N[C@@H](Cc1ccc(C(=O)O)cc1)C(=O)O; Bip = N[C@@H](Cc1ccc(-c2ccccc2)cc1)C(=O)O; Phe(3-Me) = Cc1cccc(C[C@H](N)C(=O)O)c1; Val(3-OH) = CC(C)(O)[C@H](N)C(=O)O; hArg = N=C(N)NCCCC[C@H](N)C(=O)O; hPhe = N[C@@H](CCc1ccccc1)C(=O)O; Aad = N[C@@H](CCCC(=O)O)C(=O)O; Cha = N[C@@H](CC1CCCCC1)C(=O)O; hSer = N[C@@H](CCO)C(=O)O; Carboxymethyl = O=C(O)C*; NMeA = CN[C@@H](C)C(=O)O; Orn = NCCC[C@H](N)C(=O)O; Dab = NCC[C@H](N)C(=O)O

What follows are molecules tested against T1, Alexa fluor-647 labeled human PD-L1-Ig binding to Jurkat cell line over-expressing human PD-1 (Homo sapiens, UniProt Q15116) (assay: Jurkat-PD-1 Cell Binding High-Content Screening Assay (CBA): Method 3 (Alexa fluor-647 labeled PD-L1-Ig)). Details: Jurkat-PD-1 cells, Alexa fluor-647 labeled PD-L1-Ig 177 nM; head μM; read-out: CBA Method 3 μM.
T1 construct: expressed in transfected cells; host or cells: Jurkat
T1 sequence (Q15116 25-288): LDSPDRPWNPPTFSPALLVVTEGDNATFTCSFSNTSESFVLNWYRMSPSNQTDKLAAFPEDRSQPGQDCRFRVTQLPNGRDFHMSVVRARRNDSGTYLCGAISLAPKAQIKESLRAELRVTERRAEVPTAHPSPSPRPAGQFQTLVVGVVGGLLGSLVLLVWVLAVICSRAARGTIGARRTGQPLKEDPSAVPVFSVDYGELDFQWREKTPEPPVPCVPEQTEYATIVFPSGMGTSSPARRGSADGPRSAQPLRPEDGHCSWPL
In short: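 Readout by high-content imaging of PFA-fixed, Hoechst-stained cells after 1 h with 177 nM (final) Alexa fluor-647 PD-L1-Ig. Compound was added first to hPD-1 Jurkat cells in RPMI plus 10% FCS for 2 h at 37 °C.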

Row | SMILES | IC50 [µM]
1 | CC(=O)Nc1ccc(-c2ccc(C[C@@H]3NC(=O)[C@H](Cc4cccc(C)c4)NC(=O)[C@H](CC(=O)O)NC(=O)[C@H](Cc4ccc(C(=O)O)cc4)NC(=O)[C@H](CN4CCOCC4)NC(=O)CSC[C@@H](C(=O)N[C@@H](CCN)C(N)=O)NC(=O)[C@H](CCCC(=O)O)NC(=O)[C@H](C(C)C)NC(=O)[C@H](CC4CCCCC4)NC(=O)[C@H](CCN)NC(=O)[C@@H](CC(C)C)NC(=O)[C@H](C)N(C)C(=O)[C@H](Cc4ccc(C(=O)O)cc4)NC(=O)[C@H](Cc4ccc(-c5ccccc5)cc4)NC3=O)cc2)cc1 [Example 5255] ({CH2CO}-[Ala(morpholin-4-yl)][Phe(4-COOH)]D[Phe(3-Me)][Bip(4'-NHAc)][Bip][Phe(4-COOH)][NMeA][dL][Dab][Cha]V[Aad]C[Dab]-NH2; thioether N-14) | 0.0022
2 | CC(=O)Nc1ccc(-c2ccc(C[C@@H]3NC(=O)[C@H](Cc4cccc(C)c4)NC(=O)[C@H](CC(=O)O)NC(=O)[C@H](Cc4ccc(C(=O)O)cc4)NC(=O)[C@H](CN4CCOCC4)NC(=O)CSC[C@@H](C(=O)N[C@@H](CCN)C(N)=O)NC(=O)[C@H](CCCC(N)=O)NC(=O)[C@H](C(C)C)NC(=O)[C@H](CC4CCCCC4)NC(=O)[C@H](CCN)NC(=O)[C@@H](CC(C)C)NC(=O)[C@H](C)N(C)C(=O)[C@H](Cc4ccc(C(=O)O)cc4)NC(=O)[C@H](Cc4ccc(-c5ccccc5)cc4)NC3=O)cc2)cc1 [Example 5257] ({CH2CO}-[Ala(morpholin-4-yl)][Phe(4-COOH)]D[Phe(3-Me)][Bip(4'-NHAc)][Bip][Phe(4-COOH)][NMeA][dL][Dab][Cha]V[Aad](NH2)C[Dab]-NH2; thioether N-14) | 0.03
3 | Cc1cccc(C[C@@H]2NC(=O)[C@H](CC(=O)O)NC(=O)[C@H](Cc3ccc(C(=O)O)cc3)NC(=O)[C@H](CN3CCOCC3)NC(=O)CSC[C@@H](C(=O)N[C@@H](CCN)C(N)=O)NC(=O)[C@H](CCC(=O)O)NC(=O)[C@H](C(C)C)NC(=O)[C@H](CC3CCCCC3)NC(=O)[C@H](CCN)NC(=O)[C@@H](CC(C)C)NC(=O)[C@H](C)N(C)C(=O)[C@H](Cc3ccc(C(=O)O)cc3)NC(=O)[C@H](Cc3ccc(-c4ccccc4)cc3)NC(=O)[C@H](Cc3ccc(C(=O)O)cc3)NC2=O)c1 [Example 5259] ({CH2CO}-[Ala(morpholin-4-yl)][Phe(4-COOH)]D[Phe(3-Me)][Phe(4-COOH)][Bip][Phe(4-COOH)][NMeA][dL][Dab][Cha]VEC[Dab]-NH2; thioether N-14) | 0.01
4 | Cc1cccc(C[C@@H]2NC(=O)[C@H](CC(=O)O)NC(=O)[C@H](Cc3ccc(C(=O)O)cc3)NC(=O)[C@H](CN3CCOCC3)NC(=O)CSC[C@@H](C(=O)N[C@@H](CCN)C(N)=O)NC(=O)[C@H](CCC(N)=O)NC(=O)[C@H](C(C)C)NC(=O)[C@H](CC3CCCCC3)NC(=O)[C@H](CCN)NC(=O)[C@@H](CC(C)C)NC(=O)[C@H](C)N(C)C(=O)[C@H](Cc3ccc(C(=O)O)cc3)NC(=O)[C@H](Cc3ccc(-c4ccccc4)cc3)NC(=O)[C@H](Cc3ccc(C(=O)O)cc3)NC2=O)c1 [Example 5260] ({CH2CO}-[Ala(morpholin-4-yl)][Phe(4-COOH)]D[Phe(3-Me)][Phe(4-COOH)][Bip][Phe(4-COOH)][NMeA][dL][Dab][Cha]VQC[Dab]-NH2; thioether N-14) | 0.09

Results, then the molecule that gave them:

Row | IC50 [µM] | SMILES
5 | 0.06 | Cc1cccc(C[C@@H]2NC(=O)[C@H](CC(=O)O)NC(=O)[C@H](Cc3ccc(O)cc3)NC(=O)[C@H](CN3CCOCC3)NC(=O)CSC[C@@H](C(=O)N[C@@H](CCN)C(N)=O)NC(=O)[C@H](CCC(=O)O)NC(=O)[C@H](CCO)NC(=O)[C@H](CC3CCCCC3)NC(=O)[C@H](CCN)NC(=O)[C@@H](CC(C)C)NC(=O)[C@H](C)N(C)C(=O)[C@H](CCC(N)=O)NC(=O)[C@H](Cc3ccc(-c4ccccc4)cc3)NC(=O)[C@H](Cc3ccc(OCC(=O)O)cc3)NC2=O)c1 [Example 5261] ({CH2CO}-[Ala(morpholin-4-yl)]YD[Phe(3-Me)]Y(Carboxymethyl)[Bip]Q[NMeA][dL][Dab][Cha][hSer]EC[Dab]-NH2; thioether N-14)
6 | 0.11 | CC(C)C[C@H]1NC(=O)[C@H](C)N(C)C(=O)[C@H](Cc2ccc(C(N)=O)cc2)NC(=O)[C@H](Cc2ccc(-c3ccccc3)cc2)NC(=O)[C@H](Cc2ccc(OCC(=O)O)cc2)NC(=O)[C@H](Cc2cccc(C(F)(F)F)c2)NC(=O)[C@H](CC(=O)O)NC(=O)[C@H](Cc2ccc(O)cc2)NC(=O)[C@H](CN2CCOCC2)NC(=O)CSC[C@@H](C(=O)N[C@@H](CCN)C(N)=O)NC(=O)[C@H](CCCN)NC(=O)[C@H](C(C)C)NC(=O)[C@H](CC2CCCCC2)NC(=O)[C@H](CCN)NC1=O [Example 5262] ({CH2CO}-[Ala(morpholin-4-yl)]YD[Phe(3-CF3)]Y(Carboxymethyl)[Bip][Phe(4-CONH2)][NMeA][dL][Dab][Cha]V[Orn]C[Dab]-NH2; thioether N-14)
7 | 0.18 | COc1ccc(C[C@@H]2NC(=O)[C@H](CN3CCOCC3)NC(=O)CSC[C@@H](C(=O)N[C@@H](CCN)C(N)=O)NC(=O)[C@H](CCCN)NC(=O)[C@H](C(C)C)NC(=O)[C@H](CC3CCCCC3)NC(=O)[C@H](CCN)NC(=O)[C@@H](CC(C)C)NC(=O)[C@H](C)N(C)C(=O)[C@H](CCC(N)=O)NC(=O)[C@H](Cc3ccc(-c4ccccc4)cc3)NC(=O)[C@H](Cc3ccc(OCC(=O)O)cc3)NC(=O)[C@H](Cc3cccc(C(F)(F)F)c3)NC(=O)[C@H](CC(=O)O)NC2=O)cc1 [Example 5263] ({CH2CO}-[Ala(morpholin-4-yl)]Y(Me)D[Phe(3-CF3)]Y(Carboxymethyl)[Bip]Q[NMeA][dL][Dab][Cha]V[Orn]C[Dab]-NH2; thioether N-14)
8 | 0.1 | CC(C)C[C@H]1NC(=O)[C@H](C)N(C)C(=O)[C@H](CCC(N)=O)NC(=O)[C@H](Cc2ccc(-c3ccccc3)cc2)NC(=O)[C@H](Cc2ccc(OCC(=O)O)cc2)NC(=O)[C@H](Cc2cccc(C(F)(F)F)c2)NC(=O)[C@H](CC(=O)O)NC(=O)[C@H](CCc2ccccc2)NC(=O)[C@H](CN2CCOCC2)NC(=O)CSC[C@@H](C(=O)N[C@@H](CCN)C(N)=O)NC(=O)[C@H](CCCN)NC(=O)[C@H](C(C)C)NC(=O)[C@H](CC2CCCCC2)NC(=O)[C@H](CCN)NC1=O [Example 5264] ({CH2CO}-[Ala(morpholin-4-yl)][hPhe]D[Phe(3-CF3)]Y(Carboxymethyl)[Bip]Q[NMeA][dL][Dab][Cha]V[Orn]C[Dab]-NH2; thioether N-14)

Same assay, conditions: Jurkat-PD-1 cells, Alexa fluor-647 labeled PD-L1-Ig 177 nM; nM; read-out: CBA Method 3

Row | IC50 [µM] | SMILES
9 | 0.0014 | CC(C)C[C@H]1NC(=O)[C@H](C)N(C)C(=O)[C@H](Cc2ccc(OCC(=O)O)cc2)NC(=O)[C@H](Cc2ccc(-c3ccccc3)cc2)NC(=O)[C@H](Cn2cc(C3CC3)nn2)NC(=O)[C@H](Cc2cccc(C(F)(F)F)c2)NC(=O)[C@H](CC(=O)O)NC(=O)[C@H](Cc2ccc(C(=O)O)cc2)NC(=O)[C@H](CN2CCOCC2)NC(=O)CSC[C@@H](C(=O)N[C@@H](CCN)C(N)=O)NC(=O)[C@H](CCC(N)=O)NC(=O)[C@H](C(C)C)NC(=O)[C@H](CC2CCCCC2)NC(=O)[C@H](CCN)NC1=O [Example 5250]
10 | 0.0016 | CC(C)C[C@H]1NC(=O)[C@H](C)N(C)C(=O)[C@H](Cc2ccc(C(=O)O)cc2)NC(=O)[C@H](Cc2ccc(-c3ccccc3)cc2)NC(=O)[C@H](Cn2cc(C3CC3)nn2)NC(=O)[C@H](Cc2cccc(C(F)(F)F)c2)NC(=O)[C@H](CC(=O)O)NC(=O)[C@H](Cc2ccc(C(=O)O)cc2)NC(=O)[C@H]([C@@H](C)N)NC(=O)CSC[C@@H](C(=O)N[C@@H](CCN)C(N)=O)NC(=O)[C@H](CCC(=O)O)NC(=O)[C@H](C(C)C)NC(=O)[C@H](CC2CCCCC2)NC(=O)[C@H](CCN)NC1=O [Example 5251]
11 | 0.0012 | CC(C)C[C@H]1NC(=O)[C@H](C)N(C)C(=O)[C@H](Cc2ccc(C(=O)O)cc2)NC(=O)[C@H](Cc2ccc(-c3ccccc3)cc2)NC(=O)[C@H](CCc2ccccc2)NC(=O)[C@H](Cc2cccc(C(F)(F)F)c2)NC(=O)[C@H](CC(=O)O)NC(=O)[C@H](Cc2ccc(C(=O)O)cc2)NC(=O)[C@H](CCCCNC(=N)N)NC(=O)CSC[C@@H](C(=O)N[C@@H](CCN)C(N)=O)NC(=O)[C@H](CO)NC(=O)[C@H](C(C)(C)O)NC(=O)[C@H](CC2CCCCC2)NC(=O)[C@H](CCN)NC1=O [Example 5252] ({CH2CO}-[hArg][Phe(4-COOH)]D[Phe(3-CF3)][hPhe][Bip][Phe(4-COOH)][NMeA][dL][Dab][Cha][Val(3-OH)]SC[Dab]-NH2; thioether N-14)
12 | 0.0028 | CC(=O)Nc1ccc(-c2ccc(C[C@@H]3NC(=O)[C@H](Cc4cccc(C)c4)NC(=O)[C@H](CC(=O)O)NC(=O)[C@H](Cc4ccc(-c5ccc(C(=O)O)cc5)cc4)NC(=O)[C@H](CN4CCOCC4)NC(=O)CSC[C@@H](C(=O)N[C@@H](CCN)C(N)=O)NC(=O)[C@H](CCC(=O)O)NC(=O)[C@H](C(C)C)NC(=O)[C@H](CC4CCCCC4)NC(=O)[C@H](Cc4cnc[nH]4)NC(=O)[C@@H](CC(C)C)NC(=O)[C@H](C)N(C)C(=O)[C@H](Cc4ccc(C(=O)O)cc4)NC(=O)[C@H](Cc4ccc(-c5ccccc5)cc4)NC3=O)cc2)cc1 [Example 5253] ({CH2CO}-[Ala(morpholin-4-yl)][Bip(4'-COOH)]D[Phe(3-Me)][Bip(4'-NHAc)][Bip][Phe(4-COOH)][NMeA][dL]H[Cha]VEC[Dab]-NH2; thioether N-14)
13 | 0.0013 | Cc1cccc(C[C@@H]2NC(=O)[C@H](CC(=O)O)NC(=O)[C@H](Cc3ccc(C(=O)O)cc3)NC(=O)[C@H](CN3CCOCC3)NC(=O)CSC[C@@H](C(=O)N[C@@H](CCN)C(N)=O)NC(=O)[C@H](CCC(=O)O)NC(=O)[C@H](C(C)C)NC(=O)[C@H](CC3CCCCC3)NC(=O)[C@H](Cc3cnc[nH]3)NC(=O)[C@@H](CC(C)C)NC(=O)[C@H](C)N(C)C(=O)[C@H](Cc3ccc(C(=O)O)cc3)NC(=O)[C@H](Cc3ccc(-c4ccccc4)cc3)NC(=O)[C@H](Cc3ccc(C(=O)O)cc3)NC2=O)c1 [Example 5254] ({CH2CO}-[Ala(morpholin-4-yl)][Phe(4-COOH)]D[Phe(3-Me)][Phe(4-COOH)][Bip][Phe(4-COOH)][NMeA][dL]H[Cha]VEC[Dab]-NH2; thioether N-14)
